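Where inhibition never reached the appropriate level, the endpoint shown equals the highest concentration tested. Otherwise, values were interpolated linearly from a five-concentration, 48-hour dose response in 96-well plates. The concentration for full growth arrest is given as TGI.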

Some test systems named below: 786-0 renal; A498 renal; COLO 205 colon; HOP-62 NSCLC; HS 578T breast; MOLT-4 leukemia; NCI-H23 lung; NCI-H460 lung; RXF 393 renal; SK-MEL-5 melanoma; SR leukemia.
Common to all, as to test: DTP human tumour cell line panel, 48 h

Broadly, the TGI is the concentration giving total growth inhibition. The low end stands for more potent growth arrest, the high end for less potent growth arrest. In the case of `CCOC(=O)c1sc2ncnc(N)c2c1C`, the total growth inhibition concentration (TGI) in the assay with 786-0 renal, with A498 renal, with COLO 205 colon, with HOP-62 NSCLC, with HS 578T breast and in the assay on MOLT-4 leukemia was above 100 µM in each case. The TGI in the assay with NCI-H23 lung is above 100 µM; in the assay on NCI-H460 lung, above 100 µM; in the assay on RXF 393 renal it was 71.3 µM; in the assay on SK-MEL-5 melanoma it was above 100 µM; with SR leukemia it was above 100 µM.

With `CC(=O)n1nc(-c2ccccc2)n(/N=C/c2ccc([N+](=O)[O-])o2)c1=O`, the TGI in the assay with 786-0 renal is 7.97 µM; in the assay on A498 renal it was 45 µM; in the assay with COLO 205 colon, 12.7 µM; in the assay with HOP-62 NSCLC, 19.6 µM; with HS 578T breast it was 38 µM; in the assay on MOLT-4 leukemia it was 18.6 µM. For the same compound, the TGI in the assay on NCI-H23 lung is 14.3 µM; in the assay on NCI-H460 lung it was 15.9 µM; with RXF 393 renal, 10.4 µM; in the assay on SK-MEL-5 melanoma it was 14.8 µM; with SR leukemia, 14.1 µM.

Consider `Nc1nc(Nc2ccccc2)sc1C(=O)c1ccco1`, for which the TGI with 786-0 renal is 31.7 µM; in the assay with A498 renal it was 39.6 µM; in the assay on COLO 205 colon, 27.8 µM; in the assay on HOP-62 NSCLC, 67.8 µM; in the assay with HS 578T breast it was 40.8 µM; in the assay with MOLT-4 leukemia, 35.7 µM. Also, the TGI in the assay with NCI-H23 lung was found to be 35.9 µM; in the assay on NCI-H460 lung, 28 µM; in the assay with RXF 393 renal, 30.8 µM; in the assay with SK-MEL-5 melanoma, 23.2 µM; in the assay with SR leukemia it was 25.2 µM.

For `C[C@H]1[C@H](C)CC[C@]2(C(=O)OC3OC(CO)C(O)C(O)C3O)CC[C@]3(C)C(=CC[C@@H]4[C@@]5(C)C[C@H]6OC(=O)c7cc(O)c(O)c(O)c7-c7c(cc(O)c(O)c7O)C(=O)O[C@@H]6C(CO)(CO)[C@@H]5CC[C@]43C)[C@H]12` (stereo partly drawn), the TGI in the assay on 786-0 renal was above 52.2 µM; in the assay with A498 renal, above 100 µM; with COLO 205 colon it was above 100 µM; in the assay with HOP-62 NSCLC it was above 100 µM; in the assay with HS 578T breast, above 100 µM; in the assay with MOLT-4 leukemia, above 74.4 µM. Moreover, the TGI with NCI-H23 lung is above 100 µM; in the assay on NCI-H460 lung, above 100 µM; in the assay on RXF 393 renal, above 100 µM; with SK-MEL-5 melanoma it was above 100 µM; in the assay with SR leukemia, above 96.3 µM.

Consider `Clc1nncc2sc(-c3ccccc3)nc12`, for which the concentration for total growth inhibition (TGI) with 786-0 renal was above 100 µM; in the assay with A498 renal it was above 100 µM; in the assay with COLO 205 colon, above 86.5 µM; in the assay with HOP-62 NSCLC, 53.6 µM; in the assay on HS 578T breast it was 64.7 µM; in the assay on MOLT-4 leukemia, above 97.2 µM. Besides, the concentration for total growth inhibition (TGI) was 52.9 µM in the assay with NCI-H23 lung; above 57.7 µM in the assay on NCI-H460 lung; 50.7 µM in the assay with RXF 393 renal; 46.3 µM in the assay on SK-MEL-5 melanoma; above 100 µM in the assay with SR leukemia.

Consider `CCOC(=O)NC(Nc1c(F)c(F)c(F)c(F)c1F)(C(F)(F)F)C(F)(F)F`, for which the TGI in the assay with 786-0 renal, in the assay with A498 renal, in the assay on COLO 205 colon, with HOP-62 NSCLC, with HS 578T breast and with MOLT-4 leukemia was above 100 µM throughout. Besides, the TGI in the assay with NCI-H23 lung, in the assay with NCI-H460 lung, in the assay with RXF 393 renal, with SK-MEL-5 melanoma and in the assay with SR leukemia was above 100 µM each time.

On to `CC(C)N1CN(c2ccccc2)C2(CCN(CCCC(=O)c3ccc(F)cc3)CC2)C1=O`, for which the TGI in the assay with 786-0 renal is above 60.7 µM; in the assay on A498 renal it was 7.06 µM; in the assay on COLO 205 colon it was 1.7 µM; with HOP-62 NSCLC it was 11.9 µM; in the assay on HS 578T breast it was 49.1 µM; with MOLT-4 leukemia, 47.3 µM. Moreover, the TGI with NCI-H23 lung was 28.1 µM; with NCI-H460 lung, 54.2 µM; in the assay on RXF 393 renal, above 82.2 µM; in the assay on SK-MEL-5 melanoma it was 6.53 µM; in the assay on SR leukemia, 46.1 µM.

Turning to `O=C(CC(=O)Nc1ccccc1)NNC(c1cc(N=Nc2ccc(Br)cc2)ccc1O)P(O)O` (stereo not drawn), the TGI with 786-0 renal is above 10 µM; with A498 renal it was 8.72 µM; with COLO 205 colon, above 10 µM; with HOP-62 NSCLC, above 10 µM; in the assay with HS 578T breast it was above 10 µM; in the assay on MOLT-4 leukemia, 4.15 µM. The TGI with NCI-H23 lung, with NCI-H460 lung, in the assay on RXF 393 renal, with SK-MEL-5 melanoma and in the assay with SR leukemia was above 10 µM each time.

As to `O=S1(=O)c2cnccc2NC(=NCc2ccccc2)N1c1ccccc1`, the TGI with 786-0 renal, in the assay on A498 renal, in the assay on COLO 205 colon, in the assay on HOP-62 NSCLC, with HS 578T breast and in the assay on MOLT-4 leukemia was above 100 µM each time. For the same compound, the TGI in the assay with NCI-H23 lung, in the assay with NCI-H460 lung, in the assay with RXF 393 renal, with SK-MEL-5 melanoma and in the assay on SR leukemia was above 100 µM in each case.

With `CC(C)=CCC[C@@H](C)C1=C(O)C(N)=C(C)C(=O)C1=O`, the TGI in the assay on 786-0 renal was above 100 µM; with A498 renal, above 100 µM; in the assay with COLO 205 colon it was above 100 µM; in the assay with HOP-62 NSCLC, above 100 µM; with HS 578T breast it was above 100 µM; in the assay on MOLT-4 leukemia, above 56.6 µM. Also, the TGI was above 100 µM in the assay with NCI-H23 lung; above 100 µM in the assay with NCI-H460 lung; above 100 µM in the assay with RXF 393 renal; above 86 µM in the assay with SK-MEL-5 melanoma; above 78.4 µM in the assay with SR leukemia.

For `O=C(O)CN(CC(=O)O)C(C(=O)O)c1ccccc1` (stereo not drawn), the TGI in the assay on 786-0 renal, in the assay with A498 renal, in the assay on COLO 205 colon, with HOP-62 NSCLC, in the assay with HS 578T breast and in the assay on MOLT-4 leukemia was above 100 µM in each case. Besides, the TGI in the assay on NCI-H23 lung, in the assay on NCI-H460 lung, in the assay with RXF 393 renal, in the assay on SK-MEL-5 melanoma and in the assay with SR leukemia was above 100 µM throughout.

As to `O=C(OCC1OC(n2nc(Cn3nnc(-c4cccnc4)n3)n(-c3cccc4ccccc34)c2=S)C(OC(=O)c2ccccc2)C1OC(=O)c1ccccc1)c1ccccc1` (stereo not drawn), the total growth inhibition concentration (TGI) in the assay with 786-0 renal, with A498 renal, with COLO 205 colon, with HOP-62 NSCLC, in the assay on HS 578T breast and in the assay with MOLT-4 leukemia was above 100 µM each time. Also, the TGI with NCI-H23 lung, with NCI-H460 lung, with RXF 393 renal, with SK-MEL-5 melanoma and with SR leukemia was above 100 µM throughout.

With `N#Cc1c(-c2ccccc2)c2c([nH]c1=O)-c1cc([N+](=O)[O-])ccc1CCC2`, the TGI in the assay on 786-0 renal was above 100 µM; with A498 renal it was 41 µM; with COLO 205 colon, 55.3 µM; in the assay with HOP-62 NSCLC, 70.2 µM; with HS 578T breast it was above 100 µM; in the assay on MOLT-4 leukemia, above 100 µM. Also, the TGI was 71.1 µM in the assay on NCI-H23 lung; above 100 µM with NCI-H460 lung; 42.3 µM in the assay with RXF 393 renal; 76 µM with SK-MEL-5 melanoma; above 100 µM in the assay on SR leukemia.

With `O=C(/C=C/c1ccc2c(c1)OCO2)Cc1nc2ccccc2[nH]c1=O`, the TGI in the assay with 786-0 renal is 32.5 µM; in the assay on A498 renal, 65.7 µM; in the assay with COLO 205 colon, above 100 µM; in the assay with HOP-62 NSCLC it was 35.2 µM; in the assay with HS 578T breast, 40 µM; with MOLT-4 leukemia it was above 100 µM. In addition, the TGI in the assay with NCI-H23 lung is above 100 µM; in the assay on NCI-H460 lung it was above 100 µM; in the assay with RXF 393 renal, 33.6 µM; in the assay with SK-MEL-5 melanoma, above 100 µM; with SR leukemia, above 100 µM.

Regarding `CCN(CC)CCO/N=C1\CC[C@H]2[C@@H]3CCc4cc(OC)ccc4[C@H]3CC[C@]12C`, the concentration for total growth inhibition (TGI) is 3.27 µM with 786-0 renal; 9.28 µM in the assay with A498 renal; 3.03 µM in the assay with COLO 205 colon; 3.73 µM in the assay on HOP-62 NSCLC; 7.36 µM in the assay on HS 578T breast; 3.72 µM with MOLT-4 leukemia. The concentration for total growth inhibition (TGI) was determined as 18.6 µM with NCI-H23 lung; 2.15 µM with NCI-H460 lung; 3.92 µM in the assay with RXF 393 renal; 3.21 µM in the assay on SK-MEL-5 melanoma; 4.31 µM in the assay on SR leukemia.

Take `C[n+]1c(/C=C/c2ccc(O)c3ncccc23)[se]c2ccccc21`: the TGI with 786-0 renal was 24.4 µM; in the assay on A498 renal it was 30.5 µM; in the assay on COLO 205 colon it was 22.2 µM; with HOP-62 NSCLC, 19.1 µM; in the assay with HS 578T breast, 63.5 µM; in the assay on MOLT-4 leukemia, above 22.7 µM. In addition, the TGI was 37.6 µM in the assay with NCI-H23 lung; 9.34 µM with NCI-H460 lung; 37.8 µM in the assay on RXF 393 renal; 26.5 µM in the assay with SK-MEL-5 melanoma; above 21.9 µM with SR leukemia.

For `CCOC(=O)c1ccc(Nc2nc3ccc(C(F)(F)F)cc3nc2C(=O)OCC)cc1`, the TGI in the assay on 786-0 renal, in the assay with A498 renal, in the assay on COLO 205 colon, in the assay on HOP-62 NSCLC, in the assay on HS 578T breast and in the assay with MOLT-4 leukemia was above 100 µM throughout. Besides, the TGI in the assay with NCI-H23 lung, in the assay on NCI-H460 lung, in the assay with RXF 393 renal, in the assay with SK-MEL-5 melanoma and in the assay with SR leukemia was above 100 µM each time.

On to `CN(C)CCCNC(=O)c1c(O)c2ccccc2n(C)c1=O`, for which the TGI in the assay on 786-0 renal, with A498 renal, with COLO 205 colon, with HOP-62 NSCLC, with HS 578T breast and in the assay on MOLT-4 leukemia was above 100 µM in each case. The TGI in the assay with NCI-H23 lung, with NCI-H460 lung, in the assay on RXF 393 renal, with SK-MEL-5 melanoma and in the assay with SR leukemia was above 100 µM throughout.

The values are drawn from PubChem BioAssay (NCI).
